Test results as given in patent US8603467B2 (priority 2007, dated 2013).

Tests used:
[1] = test system: 8G9/HRP (binding to virus strain Ck/HK/Yu22/02)
[2] = test system: 8G9 ascites (HI activity for Ck/HKYU22/02 virus); format: biochemical

In the case of H T P C D T R D C V L R [G2], the “Competition with avian influenza virus for 8G9/HRP” value [1] is reported as “had competition activity” and the HI blocking effect [2] is reported as “could clearly block”.
